Source: PMC8310277 (Viruses, 2021)
Where a SMILES comes first, the peptide text is derived from it. Bridges are numbered along the chain shown (N, C = ends).

How the values were obtained:
[1] = test system: pseudotyped virus expressing SARS-CoV-2 S protein from the P.1 variant; type: cell-based
[2] = test system: pseudotyped virus expressing SARS-CoV-2 S protein from the B.1.1.7 variant; type: cell-based

`CC[C@H](C)[C@@H]1NC(=O)[C@H](CCC(=O)O)NC(=O)[C@@H]2CSSC[C@@H]3NC(=O)[C@H](Cc4ccc(O)cc4)NC(=O)[C@@H](NC(=O)[C@@H](NC(=O)[C@H](C)N)[C@@H](C)O)CSSC[C@@H](C(=O)N[C@@H](CCCNC(=N)N)C(=O)O)NC(=O)[C@H](CSSC[C@H](NC(=O)[C@H](CCCNC(=N)N)NC(=O)CNC(=O)[C@H]([C@@H](C)O)NC(=O)[C@H](CCCNC(=N)N)NC3=O)C(=O)N[C@@H](C)C(=O)N[C@@H]([C@@H](C)O)C(=O)N[C@@H](CCCNC(=N)N)C(=O)N[C@@H](CCC(=O)O)C(=O)N[C@@H](CO)C(=O)N[C@@H](CC(C)C)C(=O)N[C@@H](CO)C(=O)NCC(=O)N[C@@H](C(C)C)C(=O)N2)NC(=O)[C@H](CC(C)C)NC(=O)[C@H](CCCNC(=N)N)NC(=O)[C@H](Cc2ccc(O)cc2)NC(=O)[C@H](CC(C)C)NC(=O)[C@H](CCCNC(=N)N)NC(=O)CNC(=O)[C@H](CO)NC1=O` [HD5] (H-ATCYCRTGRCATRESLSGVCEISGRLYRLCCR-OH; disulfide 3-31, 5-20, 10-30 (inferred); N-terminus and C-terminus assumed) was tested. Which “effect on P.1 variant (in words)” value [1] did it give?
Its value is “suppressed the P.1 variant in a dose-dependent manner”.

What about the “suppression of P1 infection” value ([1]; 50 μg/mL) of the same molecule?
The value was 72%.

And the “effect on B.1.1.7 variant (in words)” value [2]?
Its value is “moderate antiviral activity”.

And the “inhibition of B.1.1.7 infection” value ([2]; 50 μg/mL)?
The value was 32%.
